# Test results taken from patent US20260226079A1, “A STRATEGY FOR THE SELECTIVE REMOVAL OF MRI CONTRAST AGENTS” (Portland State University, priority 2023, published 2026).
# Marks after values point to notes of the source that are not given here.
# What was measured:
# [1] = SPAAC selective interception of GdDO3A-azido monoamide chelate on DBCO-PS beads, Gd by ICP-MS; details: pH 7, 37° C.
# Experimental: The GdDO3A-azido monoamide chelate and DBCO-PS beads shown in FIG. 15 were utilized in a similar experiment described previously. Due to the expensive DBCO starting material, the beads were generated on small scales. Accordingly, the scales of the experiments were reduced to 50 mg bead starting material and 0.5 equivalents of GBCA consistent with the loading capacity determined for each batch of DBCO-PS. All other conditions remained constant (1 mL reaction volume, 37° C., 1,000 rpm mixing at pH 7). Samples were prepared for ICP-MS analysis using the same method as previously described with fewer dilutions. The experiments were run with variable reaction times, matrix, and percentage DMSO.
# [2] = 1H NMRD relaxivity profiles and parametric fitting (SBM / Lipari-Szabo); format: physicochemical; set-up: ^298D: unit not given here; details: for ^22r1 (298K), relaxivity: 20 MHz; for ^22r1 (298K), relaxivity / ER / Δ^2 / τRG, global rotational correlation time constant / τV: pH 7.0 (N3), pH 6.8 (DBCO); for EV / ^298D / a / q / r: fixed during fitting
# Experimental: FIG. 19 is a plot illustrating the GdDO3A-DBCO monoamide ^1H NMRD profiles at 283 (blue, top line), 298 (black, middle line) and 310 K (red, lower line), measured at pH 6.8, and a Gd^3+ concentration of 1.32 mM.
# FIG. 21 is a plot illustrating the GdDO3A-azido monoamide ^1H NMRD profiles at 283 (blue, top line), 298 (black, middle line) and 310 K (red, lower line), measured at pH 7.0.
# (§1) Previous work by the inventors has shown that chelates functionalized with bulky aromatic groups have the propensity to self-associate in solution. […] The most common methods to determine the physico-chemical properties described by SBM theory are through fittings of experimental data obtained from the reduced ^17O transverse relaxation rate, R2p, as a function of temperature and relaxivity, ri, as a function of proton Larmor frequency i.e. nuclear magnetic resonance dispersion (NMRD) profiles.
# The NMRD profiles of GBCAs are used to characterize several important physico-chemical parameters described by SBM theory. The most influential parameter which affects the shape of an NMRD curve is the rotational correlation time constant (τR) of the complex. Macromolecular species which tumble slowly impart a positive impact on relaxivity at all fields, but particularly at high fields presented as a characteristic “hump” in the 10-60 MHz region, distinct from quickly tumbling chelates in which relaxivity continues to decrease with increasing field strength. The molecular weight of the GdDO3A-DBCO monoamide would not be considered a large macromolecular structure; any indication of a slowly tumbling complex would be indicative of an aggregate species which we hypothesized as the self-associating chelate. As shown below in FIG. 19, relaxivity is quite high in low field regions where electronic spin relaxation contributes, followed by a characteristic dispersion around 1 MHz when the contribution drops off. There is a “hump” around 20 MHz which is indicative of a slowly tumbling species, consistent with a self-associating chelate. This macromolecular structure is the source of a rather high relaxivity of 7.1 mM^−1s^−1 (20 MHz, pH 6.8, 298 K) in comparison to most clinical agents which remain in the 4 mM^−1 s^−1-5 mM^−1s^−1 range.
# The global and local rotational correlation time constants were 375 ps and 107 ps, respectively. […] This further corroborated the presence of a self-association which led to a decrease in the efficiency observed in selective interception trials.
# The dispersion at 1-10 MHz corresponded to a typical drop-off of the electronic spin relaxation contribution, followed by continued decrease in relaxivity with increasing field strength. There was no evidence of a slowly tumbling structure which was reflected in a standard parametric fitting procedure with one discrete rotational contribution.
# [3] = Temperature-dependent 17O R2p transverse relaxation rate (67.8 MHz, 11.74 T) and fitting; format: physicochemical; details: for τM, water residence lifetime / AO/h / Δ HM: fitted; for τM, water residence lifetime: pH 7.0 (GdDO3A-N3-monoamide), pH 6.8 (GdDO3A-DBCO-monoamide); for AO/h / Δ HM: pH 7.0 (N3), pH 6.8 (DBCO)
# Experimental: FIG. 18 is a plot illustrating the GdDO3A-DBCO monoamide temperature-dependent R2p relaxation rate of ^17O measured at 67.8 MHz (11.74 T) pH 6.8, and a Gd^3+ concentration of 6.5 mM.
# FIG. 20 is a plot illustrating the GdDO3A-azido monoamide temperature-dependent R2p relaxation rate of ^17O measured at 67.8 MHz (11.74 T) pH 7.0, and a Gd^3+ concentration of 8.5 mM.
# as §1
# Analysis of the reduced transverse relaxation rate constant of ^17O (R2p) as a function of temperature is the most common experimental technique to determine water residence lifetime, τM. The function typically resembles a bell curve where the inflection point temperature is an indicator of water exchange kinetics. The experiments were performed at a pH of 6.8 and a Gd^3+ concentration of 6.5 mM. Precipitation was observed below 295 K. The ^17O curve reached an inflection point at about 310 K, and the fitted value of τM was 545 ns, comparatively slow in the context of achieving high relaxivities but fast enough that exchange is in the fast exchange regime and rl is sensitive to changes in molecular tumbling, […].
# Unsurprisingly, the shape is nearly identical to the DBCO-containing counterpart; both are monoamides and a similar water exchange rate would be expected. In this case, the water residence lifetime time constant (τM) was equivalent to the DBCO ligand at 545 ns.
# [4] = SPAAC selective interception of GdDO3A-DBCO monoamide chelate on azide terminated PS beads, Gd in supernatant by ICP-MS; details: for % Gd Remaining: 50° C., 1,000 rpm, 24 hours
# Experimental: To address potential stability issues associated with the GdTTHA-Alkyne and azide-PS beads system, tri-acetate mono-amide chelate systems were tested, that may experience fewer experimental difficulties. The initial SPAAC reactions were carried out with GdDO3A-DBCO monoamide chelate and azide terminated bead (FIG. 13). The Gd^3+ concentration was temporally monitored in the supernatant to gain a sense of reaction kinetics and optimal reaction times. To avoid mechanical stirring, a temperature-controlled thermomixer was used which mixed through agitation and was capable of batch testing. And the reaction was analyzed by ICP-MS.
# All experiments were performed on a 100 mg bead scale with 0.5 equivalents of GdDO3A-DBCO monoamide chelate in water (1 mL) agitated at 1,000 rpm and 50° C. […] were selected: 3 minutes, 3 hours, 6 hours, 9 hours and 24 hours. The reactions were stopped at their respective time point, the sample was centrifuged and the supernatant was decanted and filtered. The beads were washed and centrifuged three times before the filtered supernatant was freeze dried and digested in HNO3 for ICP-MS analysis.
# The effect of pH at relevant pH ranges of urine (~4.5-8) on the efficiency of Gd removal was investigated. Additionally, the role of an organic cosolvent was investigated to determine whether the aqueous medium is a limiting factor in efficiency. A pH range of 5-9 was tested with 1:1 v:v DMSO:H2O at 50° C. stirring at 1,000 rpm for 24 hours. The reaction mixtures were centrifuged, and the supernatant was decanted and filtered. The beads were washed and centrifuged in triplicate and the supernatants were freeze dried and digested for ICP-MS analysis, data summarized below in Table 1.
# A multivariate approach was designed to establish the interaction between various levels of cosolvent volume, reaction time and temperature. The volume of DMSO was lowered with the hope of identifying other contributing factors that would lead to an enhanced outcome using a minimal amount of organic cosolvent. Additionally, the temperature ranged from 25° C. to 50° C. and the reaction time was assessed over 0.5 hours and 24 hours, and at pH 7. The scale of the beads and GdDO3A-DBCO monoamide chelate remained the same as previous trials at a 100 mg scale with 0.5 equivalents of GBCA while mixing at 1,000 rpm. The beads were centrifuged, washed, and digested in nitric acid for ICP-MS analysis using the methods described previously, results summarized below in Table 2.
# Following the suboptimal results from previous trials with a smaller volume of DMSO cosolvent, the range of added cosolvent was increased to 50% v:v. Additionally, a simulated urine matrix, Surine™, was added to test if there were any significant effects from any urine constituents on the reaction efficiency. The experiments were run with variable reaction times, matrix and percentage DMSO at pH 7 and 37° C.
# [5] = 20 MHz and 298 K, comparison value; cited from earlier work
# [6] = fitted, Lipari-Szabo approach, pH 6.8
compound,measurement,setting,value
[Gd+3].[N-]=[N+]=NCCCNC(=O)CN1CCN(CC(=O)[O-])CCN(CC(=O)[O-])CCN(CC(=O)[O-])CC1 [GdDO3A-azido monoamide],Gd Remaining (%),"[1]; Entry 1: 0.5 hr, Water, 0% DMSO",39%
same,Gd Remaining (%),"[1]; Entry 2: 0.5 hr, Water, 50% DMSO",36%
same,Gd Remaining (%),"[1]; Entry 3: 8 hr, Water, 0% DMSO",40%
same,Gd Remaining (%),"[1]; Entry 4: 8 hr, Water, 50% DMSO",35%
same,Gd Remaining (%),"[1]; Entry 5: 0.5 hr, Surine, 0% DMSO",27%
same,Gd Remaining (%),"[1]; Entry 6: 0.5 hr, Surine, 50% DMSO",37%
same,Gd Remaining (%),"[1]; Entry 7: 8 hr, Surine, 0% DMSO",39%
same,Gd Remaining (%),"[1]; Entry 8: 8 hr, Surine, 50% DMSO",38%
same,"^22r1 (298K), relaxivity",[2],4.7 mM⁻¹ s⁻¹
same,ER,[2]; fitted,4.28 kcal/mol
same,Δ^2,[2]; fitted,5.7 10^19 s^−2
same,"τRG, global rotational correlation time constant",[2]; fitted,70 ps
same,τV,[2]; fitted,8.4 ps
same,EV,[2],1.0^a kJ mol^−1
same,^298D,[2],2.24
same,a,[2],4.0^a Å
same,q,[2],1^a
same,r,[2],3.0^a Å
same,"τM, water residence lifetime",[3],545 ns
same,AO/h,[3],−3.2 10^6 rad s^−1
same,Δ HM,[3],11 kcal/mol
O=C([O-])CN1CCN(CC(=O)[O-])CCN(CC(=O)NCCC(=O)N2Cc3ccccc3C#Cc3ccccc32)CCN(CC(=O)[O-])CC1.[Gd+3] [GdDO3A-DBCO monoamide],Gd Remaining (%),"[4]; Entry 1: 0.5 hr, Water, 0% DMSO, pH 7, 37° C.",27%
same,Gd Remaining (%),"[4]; Entry 1: cosolvent 0 μL, 25 °C, 0.5 hr, pH 7",71%
same,Gd Remaining (%),"[4]; Entry 2: 0.5 hr, Water, 50% DMSO, pH 7, 37° C.",28%
same,Gd Remaining (%),"[4]; Entry 2: cosolvent 0 μL, 25 °C, 24 hr, pH 7",70%
same,Gd Remaining (%),"[4]; Entry 3: 8 hr, Water, 0% DMSO, pH 7, 37° C.",27%
same,Gd Remaining (%),"[4]; Entry 3: cosolvent 100 μL, 25 °C, 0.5 hr, pH 7",68%
same,Gd Remaining (%),"[4]; Entry 4: 8 hr, Water, 50% DMSO, pH 7, 37° C.",18%
same,Gd Remaining (%),"[4]; Entry 4: cosolvent 100 μL, 25 °C, 24 hr, pH 7",69%
same,Gd Remaining (%),"[4]; Entry 5: 0.5 hr, Surine, 0% DMSO, pH 7, 37° C.",28%
same,Gd Remaining (%),"[4]; Entry 5: cosolvent 0 μL, 50 °C, 0.5 hr, pH 7",67%
same,Gd Remaining (%),"[4]; Entry 6: 0.5 hr, Surine, 50% DMSO, pH 7, 37° C.",29%
same,Gd Remaining (%),"[4]; Entry 6: cosolvent 0 μL, 50 °C, 24 hr, pH 7",65%
same,Gd Remaining (%),"[4]; Entry 7: 8 hr, Surine, 0% DMSO, pH 7, 37° C.",30%
same,Gd Remaining (%),"[4]; Entry 7: cosolvent 100 μL, 50 °C, 0.5 hr, pH 7",69%
same,Gd Remaining (%),"[4]; Entry 8: 8 hr, Surine, 50% DMSO, pH 7, 37° C.",20%
same,Gd Remaining (%),"[4]; Entry 8: cosolvent 100 μL, 50 °C, 24 hr, pH 7",67%
same,second order rate constant of interception reaction,"[4]; extrapolated from integrated second order rate law, FIG. 14",48.4 M⁻¹ s⁻¹
same,% Gd Remaining,"[4]; pH 5, 1:1 v:v DMSO:H2O",1.64%
same,% Gd Remaining,"[4]; pH 7, 1:1 v:v DMSO:H2O",2%
same,% Gd Remaining,"[4]; pH 9, 1:1 v:v DMSO:H2O",1.6%
same,"^22r1 (298K), relaxivity",[2],7.1 mM⁻¹ s⁻¹
same,"aggregate rotates more slowly than the discrete chelate (global vs local rotation), fold",[2]; Lipari-Szabo fitting,over 3 ×
same,S^□,[2]; [6],0.36
same,"τRL, local rotational correlation time constant",[2]; [6],107 ps
same,ER,[2]; fitted,4.78 kcal/mol
same,Δ^2,[2]; fitted,3.5 10^19 s^−2
same,"τRG, global rotational correlation time constant",[2]; fitted,375 ps
same,τV,[2]; fitted,13 ps
same,EV,[2],1.0^a kJ mol^−1
same,^298D,[2],2.24
same,a,[2],4.0^a Å
same,q,[2],1^a
same,r,[2],3.0^a Å
same,"τM, water residence lifetime",[3],545 ns
same,AO/h,[3],−3.0 10^6 rad s^−1
same,Δ HM,[3],11 kcal/mol
same,inflection point of 17O R2p curve,"[3]; pH 6.8, Gd^3+ 6.5 mM",about 310 K
same,temperature below which precipitation was observed,"[3]; pH 6.8, Gd^3+ 6.5 mM",below 295 K
O=C([O-])CN1CCN(CC(=O)[O-])CCN(CC(=O)O)CCN(CC(=O)[O-])CC1.[Gd+3] [GdDOTA],relaxivity,[5],4.5 mM⁻¹ s⁻¹
